Reference: PubChem BioAssay AID328 (DTP/NCI, 2004)
Where “and” joins values, the source holds several entries; their conditions need not be identical. Identical values can stand only once. Inconclusive results and toxic doses are left out.

Test system: BDF1 mice, P388 leukemia ip, median survival T/C
Experiment: NCI In Vivo Anticancer Drug Screen. Data for tumor model P388 Leukemia (intraperitoneal) in B6D2F1 (BDF1) mice
Details: endpoint: median survival time, higher = longer survival
Summary of the method: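 T/C = treated-group survival ÷ vehicle-control survival; tumour transplanted into mice before dosing.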

[1] = dose: 100.0 mg/kg/injection, schedule: Q01DX009 (ip), vehicle: Klucel (hydroxypropylcellulose) (HPC)
[2] = dose: 200.0 mg/kg/injection, schedule: Q01DX009 (ip), vehicle: Klucel (hydroxypropylcellulose) (HPC)
[3] = dose: 50.0 mg/kg/injection, schedule: Q01DX009 (ip), vehicle: saline with Tween-80
[4] = dose: 100.0 mg/kg/injection, schedule: Q01DX009 (ip), vehicle: saline with Tween-80
[5] = dose: 100.0 mg/kg/injection, schedule: Q04DX003 (ip), vehicle: Klucel (hydroxypropylcellulose) (HPC)
[6] = dose: 200.0 mg/kg/injection, schedule: Q04DX003 (ip), vehicle: Klucel (hydroxypropylcellulose) (HPC)
[7] = dose: 25.0 mg/kg/injection, schedule: Q01DX009 (ip), vehicle: saline
[8] = dose: 25.0 mg/kg/injection, schedule: Q04DX003 (ip), vehicle: saline
[9] = dose: 50.0 mg/kg/injection, schedule: Q04DX003 (ip), vehicle: saline
[10] = dose: 100.0 mg/kg/injection, schedule: Q04DX003 (ip), vehicle: saline with Tween-80
[11] = dose: 200.0 mg/kg/injection, schedule: Q04DX003 (ip), vehicle: saline with Tween-80
[12] = dose: 400.0 mg/kg/injection, schedule: Q04DX003 (ip), vehicle: saline with Tween-80
[13] = dose: 200.0 mg/kg/injection, schedule: Q01DX009 (ip), vehicle: saline with Tween-80

O=[N+]([O-])c1ccc(OCc2ccc(S(=O)(=O)F)c(Cl)c2)c(Cl)c1
T/C (dose: 100.0 mg/kg/injection, schedule: Q01DX001 (ip), vehicle: saline): 115 % of control
T/C [1]: 102 % of control
T/C (dose: 200.0 mg/kg/injection, schedule: Q01DX001 (ip), vehicle: saline): 100 % of control
T/C [2]: 100 % of control
T/C (dose: 400.0 mg/kg/injection, schedule: Q01DX001 (ip), vehicle: saline): 103 % of control
T/C (dose: 400.0 mg/kg/injection, schedule: Q01DX009 (ip), vehicle: Klucel (hydroxypropylcellulose) (HPC)): 103 % of control

C/C(=C\c1ccc(C)cc1)[N+](=O)[O-]
T/C (dose: 17.5 mg/kg/injection, schedule: Q01DX010 (ip), vehicle: saline): 95 % of control
T/C (dose: 35.0 mg/kg/injection, schedule: Q01DX010 (ip), vehicle: saline): 86 % of control
T/C (dose: 70.0 mg/kg/injection, schedule: Q01DX010 (ip), vehicle: saline): 90 % of control

COc1cc2c(cc1O)CCCCC2=O
T/C (dose: 25.0 mg/kg/injection, schedule: Q01DX009 (ip), vehicle: saline with Tween-80): 109 % of control
T/C [3]: 104 % of control
T/C [4]: 104 % of control
T/C [5]: 110 % of control
T/C [6]: 95 % of control
T/C (dose: 400.0 mg/kg/injection, schedule: Q04DX003 (ip), vehicle: Klucel (hydroxypropylcellulose) (HPC)): 90 % of control

COc1c(Br)cc(N=Cc2ccc(N(CCCl)CCCl)cc2C)cc1Br
T/C (dose: 88.0 mg/kg/injection, schedule: Q01DX010 (ip), vehicle: carboxymethylcellulose (CMC)): 115 % of control
T/C (dose: 133.0 mg/kg/injection, schedule: Q01DX010 (ip), vehicle: carboxymethylcellulose (CMC)): 155 % of control
T/C (dose: 200.0 mg/kg/injection, schedule: Q01DX010 (ip), vehicle: carboxymethylcellulose (CMC)): 165 % of control
T/C (dose: 300.0 mg/kg/injection, schedule: Q01DX010 (ip), vehicle: carboxymethylcellulose (CMC)): 215 % of control

CCCCN(C)c1ncnc2[nH]ncc12
T/C [7]: 100 % of control
T/C [8]: 95 % of control
T/C (dose: 50.0 mg/kg/injection, schedule: Q01DX009 (ip), vehicle: saline): 109 % of control
T/C [9]: 95 % of control
T/C (dose: 100.0 mg/kg/injection, schedule: Q04DX003 (ip), vehicle: saline): 91 % of control

ClCc1c2ccccc2c(CCl)c2ccccc12
T/C (dose: 0.21 mg/kg/injection, schedule: Q01DX009 (ip), vehicle: saline): 154 % of control
T/C (dose: 0.33 mg/kg/injection, schedule: Q01DX009 (ip), vehicle: saline): 159 % of control and 190 % of control
T/C (dose: 0.49 mg/kg/injection, schedule: Q01DX009 (ip), vehicle: saline): 154 % of control
T/C (dose: 1.3 mg/kg/injection, schedule: Q04DX003 (ip), vehicle: Klucel (hydroxypropylcellulose) (HPC)): 150 % of control
T/C (dose: 1.35 mg/kg/injection, schedule: Q01DX009 (ip), vehicle: saline): 180 % of control
T/C (dose: 1.5 mg/kg/injection, schedule: Q01DX009 (ip), vehicle: Klucel (hydroxypropylcellulose) (HPC)): 153 % of control
T/C (dose: 2.0 mg/kg/injection, schedule: Q04DX003 (ip), vehicle: Klucel (hydroxypropylcellulose) (HPC)): 170 % of control
T/C (dose: 3.0 mg/kg/injection, schedule: Q01DX009 (ip), vehicle: Klucel (hydroxypropylcellulose) (HPC)): 157 % of control and 200 % of control
T/C (dose: 3.0 mg/kg/injection, schedule: Q04DX003 (ip), vehicle: Klucel (hydroxypropylcellulose) (HPC)): 154 % of control and 166 % of control
T/C (dose: 5.0 mg/kg/injection, schedule: Q04DX003 (ip), vehicle: Klucel (hydroxypropylcellulose) (HPC)): 168 % of control
T/C (dose: 6.0 mg/kg/injection, schedule: Q01DX009 (ip), vehicle: Klucel (hydroxypropylcellulose) (HPC)): 105 % of control
T/C (dose: 8.0 mg/kg/injection, schedule: Q04DX003 (ip), vehicle: Klucel (hydroxypropylcellulose) (HPC)): 154 % of control and 172 % of control
T/C (dose: 12.0 mg/kg/injection, schedule: Q04DX003 (ip), vehicle: Klucel (hydroxypropylcellulose) (HPC)): 177 % of control

CC(=O)OCc1c(COC(C)=O)c(-c2ccccc2)n2c1CCC2
T/C (dose: 6.25 mg/kg/injection, schedule: Q01DX009 (ip), vehicle: Klucel (hydroxypropylcellulose) (HPC)): 107 % of control

CNC(=O)Cc1[nH]ccc1C(=O)O
T/C (dose: 100.0 mg/kg/injection, schedule: Q01DX001 (ip), vehicle: saline with Tween-80): 106 % of control
T/C (dose: 200.0 mg/kg/injection, schedule: Q01DX001 (ip), vehicle: saline with Tween-80): 103 % of control
T/C (dose: 400.0 mg/kg/injection, schedule: Q01DX001 (ip), vehicle: saline with Tween-80): 114 % of control

Cc1cc(=O)c2cccc(C)c2[nH]1
T/C (dose: 50.0 mg/kg/injection, schedule: Q01DX009 (ip), vehicle: Klucel (hydroxypropylcellulose) (HPC)): 96 % of control
T/C [1]: 96 % of control
T/C [5]: 95 % of control
T/C [2]: 92 % of control
T/C [6]: 91 % of control

CCN(C(=O)Nc1cccc2ccccc12)c1ccccc1
T/C (dose: 50.0 mg/kg/injection, schedule: Q01DX001 (ip), vehicle: other): 95 % of control
T/C (dose: 100.0 mg/kg/injection, schedule: Q01DX001 (ip), vehicle: other): 95 % of control
T/C (dose: 200.0 mg/kg/injection, schedule: Q01DX001 (ip), vehicle: other): 100 % of control

CC1=C/C(=N/NC(N)=O)CC(C)C1 (stereo not drawn)
T/C (dose: 50.0 mg/kg/injection, schedule: Q04DX003 (ip), vehicle: Klucel (hydroxypropylcellulose) (HPC)): 100 % of control
T/C [5]: 105 % of control
T/C [6]: 100 % of control

OCC1OC(n2ccc3c2ncn2nnnc32)C(O)C1O (stereo not drawn)
T/C (dose: 6.25 mg/kg/injection, schedule: Q01DX009 (ip), vehicle: saline): 97 % of control
T/C (dose: 12.5 mg/kg/injection, schedule: Q01DX009 (ip), vehicle: saline): 94 % of control
T/C (dose: 12.5 mg/kg/injection, schedule: Q04DX003 (ip), vehicle: saline): 96 % of control
T/C [7]: 94 % of control
T/C [8]: 104 % of control
T/C [9]: 111 % of control

c1ccc(CCSc2ccccc2)cc1
T/C [10]: 113 % of control
T/C [11]: 109 % of control
T/C [12]: 118 % of control

CC(=O)Nc1ccc(SSSc2ccc(NC(C)=O)cc2)cc1
T/C (dose: 12.5 mg/kg/injection, schedule: Q01DX009 (ip), vehicle: water): 100 % of control
T/C (dose: 25.0 mg/kg/injection, schedule: Q01DX009 (ip), vehicle: water): 96 % of control
T/C (dose: 50.0 mg/kg/injection, schedule: Q01DX009 (ip), vehicle: water): 101 % of control
T/C (dose: 100.0 mg/kg/injection, schedule: Q01DX009 (ip), vehicle: water): 105 % of control
T/C (dose: 200.0 mg/kg/injection, schedule: Q01DX009 (ip), vehicle: water): 111 % of control and 118 % of control

CCOC(=O)c1ccc(NC(C)=O)c(CSC)c1
T/C (dose: 50.0 mg/kg/injection, schedule: Q04DX002 (ip), vehicle: saline with Tween-80): 107 % of control
T/C (dose: 100.0 mg/kg/injection, schedule: Q04DX002 (ip), vehicle: saline with Tween-80): 98 % of control
T/C (dose: 200.0 mg/kg/injection, schedule: Q04DX002 (ip), vehicle: saline with Tween-80): 99 % of control

COC(=O)CCC(=O)c1ccc(OC)c(OC)c1
T/C [3]: 115 % of control
T/C [4]: 99 % of control
T/C [13]: 99 % of control

O=C(C(=O)c1ccc(Cl)cc1)c1ccc(Cl)cc1
T/C (dose: 12.5 mg/kg/injection, schedule: Q04DX003 (ip), vehicle: other): 100 % of control
T/C (dose: 25.0 mg/kg/injection, schedule: Q04DX003 (ip), vehicle: other): 86 % of control

COc1ccc(CN2CCN(Cc3ccc(OC)c(OC)c3)C2c2ccc(OC)c(OC)c2)cc1OC
T/C [4]: 109 % of control
T/C [10]: 105 % of control
T/C [13]: 100 % of control
T/C [11]: 105 % of control
T/C (dose: 400.0 mg/kg/injection, schedule: Q01DX009 (ip), vehicle: saline with Tween-80): 100 % of control
T/C [12]: 95 % of control

COC(=O)N(CCCl)N=O
T/C (dose: 2.5 mg/kg/injection, schedule: Q01DX001 (ip), vehicle: saline with Tween-80): 109 % of control
T/C (dose: 5.0 mg/kg/injection, schedule: Q01DX001 (ip), vehicle: saline with Tween-80): 109 % of control
T/C (dose: 10.0 mg/kg/injection, schedule: Q01DX001 (ip), vehicle: saline with Tween-80): 123 % of control
